# Laboratory results: US20060079453A1, “Hla binding peptides and their uses” (priority 2002, published 2006)
# Like-named read-outs stand apart in the source and are kept apart here. No end group written: not given here.
# Legend:
# Test in all cases: biochemical
# Type in all cases: binding
# [1] = target: HLA-DR DRB1*0901 (DR9) (Homo sapiens, UniProt P01903+P01911, A100R/A103E/D57H/D86V/F55Y/F60I/F76Y/I96F/K127E/L162R/M171V/P40D/Q125H/Q99R/R33Q/R42F/S133A/S66N/T210M/V115G/W38K/Y107V/Y59G/Y89S); details: DRB1 *0901
# [2] = target: HLA-DR DRB1*0405 (DR4) (Homo sapiens, UniProt P01903+P01911, A100R/A169T/D86S/F76Y/I96L/K127E/L162R/M171V/N62H/P40V/Q125Y/R42H/S133A/S149N/S66Y/V115G/V209L/W38E)
# [3] = target: HLA-DR DRB1*1501 (DR15) (Homo sapiens, UniProt P01903+P01911)
# [4] = target: HLA-DR DRB1*1101 (DR11) (Homo sapiens, UniProt P01903+P01911, A100R/A169T/A87E/I96F/K41T/L162R/M171V/P40S/Q125H/Q178H/Q39Y/Q99D/R42S/S66Y/T262R/V115G/W38E); details: DRB1 *1101
# HLA-DR DRB1*1101 (DR11), sequence (P01903 26-254 limits assumed, other chains not shown): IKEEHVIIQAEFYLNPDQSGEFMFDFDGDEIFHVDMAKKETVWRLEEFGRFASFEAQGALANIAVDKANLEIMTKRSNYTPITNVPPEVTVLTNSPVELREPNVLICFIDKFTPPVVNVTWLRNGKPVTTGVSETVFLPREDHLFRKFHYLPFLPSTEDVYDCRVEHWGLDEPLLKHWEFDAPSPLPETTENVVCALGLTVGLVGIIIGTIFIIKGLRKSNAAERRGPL
# [5] = target: HLA-DR DRB1*1302 (DR13) (Homo sapiens, UniProt P01903+P01911, A100E/A169T/K41T/L162R/M171V/P40S/Q125H/Q178H/Q39Y/Q99D/R42S/S66N/T262R/V115G/W38E/Y61H); details: DRBI *1302
# HLA-DR DRB1*1302 (DR13), sequence (P01903 26-254 limits assumed, other chains not shown): as above
# [6] = target: HLA-DR DRB4*0101 (DR53) (Homo sapiens, UniProt P01903+P13762, G164S)
# [7] = target: HLA-DR DRB1*0101 (DR1) (Homo sapiens, UniProt P01903+P01911, A100R/D57E/F55L/F60I/F76Y/I96L/L162R/M171V/P40L/Q125E/R42F/V115G/Y59C)
# [8] = target: HLA-DR DRB1*0301 (DR3) (Homo sapiens, UniProt P01903+P01911, A100K/A102G/A103R/A169T/F55Y/I96L/K41T/L162R/M171V/P40S/Q125H/Q178H/Q39Y/R42S/S66N/T106N/T262R/W38E/Y61H)
# HLA-DR DRB1*0301 (DR3), sequence (P01903 26-254 limits assumed, other chains not shown): as above
# [9] = target: HLA-DR DRB1*0401 (DR4) (Homo sapiens, UniProt P01903+P01911, A100K/A169T/F76Y/I96L/K127E/L162R/M171V/N62H/P40V/Q125Y/R42H/S133A/S149N/S66Y/V115G/V209L/W38E)
# [10] = target: HLA-DR DRB1*0802 (DR8) (Homo sapiens, UniProt P01903+P01911, A100R/A103L/A169T/F76Y/H45Y/I96F/K41T/L162R/M171V/P40S/Q125H/Q178H/Q39Y/Q99D/R218S/R42G/S66Y/V115G/W38E)
# [11] = target: HLA-DR DRB5*0101 (DR51) (Homo sapiens, UniProt P01903+Q30154); details: DRB5 *0101
# [12] = target: HLA-DR DRB1*0701 (DR7) (Homo sapiens, UniProt P01903+P01911, A100R/A102G/A103Q/D57E/D86V/E43K/F76Y/K127E/L162R/M171V/P40G/Q125H/Q99D/R33Q/R42Y/R54Q/S133A/S66F/T210M/V115G/Y107V/Y59L/Y89S)
Compound,IC50 [1] [nM],IC50 ([2]; DRB1 *0405) [nM],IC50 [3] [nM],IC50 [4] [nM],IC50 [5] [nM],IC50 [6] [nM],IC50 ([7]; DRB1 *0101) [nM],IC50 [8] [nM],IC50 ([9]; DRB1 *0401) [nM],IC50 ([3]; DRBI *1501) [nM],IC50 [10] [nM],IC50 [11] [nM],IC50 ([12]; DRB1 *0701) [nM],IC50 ([6]; DRB4 *0101) [nM],IC50 ([2]; read-out: DRB1 *0405) [nM],IC50 ([10]; read-out: DRB1 *0802) [nM],IC50 ([7]; read-out: DRB1 *0101) [nM],IC50 ([8]; read-out: DRB1 *0301) [nM],IC50 ([9]; read-out: DRB1 *0401) [nM],IC50 ([12]; read-out: DRB1 *0701) [nM]
CC[C@H](C)[C@H](NC(=O)[C@H](Cc1ccc(O)cc1)NC(=O)[C@@H]1CCCN1C(=O)[C@H](CC(=O)O)NC(=O)[C@H](CCC(=O)O)NC(=O)[C@H](CC(C)C)NC(=O)[C@@H](NC(=O)[C@H](C)NC(=O)[C@@H](N)CCC(=O)O)C(C)C)C(=O)N[C@@H](CC(C)C)C(=O)N[C@@H](CC(C)C)C(=O)N[C@H](C(=O)N[C@@H](CO)C(=O)N[C@@H](CO)C(=O)N[C@@H](CCCCN)C(=O)O)C(C)C,15000,681,> 50800,4380,> 10300,> 26400,34,479,233,,,,,,,,,,,
CSCC[C@H](NC(=O)[C@H](CCC(N)=O)NC(=O)[C@@H](NC(=O)[C@H](Cc1ccccc1)NC(=O)[C@H](C)NC(=O)[C@@H](NC(=O)CN)[C@@H](C)O)C(C)C)C(=O)N1CCC[C@H]1C(=O)N[C@@H](C)C(=O)N[C@@H](Cc1c[nH]cn1)C(=O)NCC(=O)N[C@@H](CC(C)C)C(=O)N[C@@H](Cc1ccccc1)C(=O)N1CCC[C@H]1C(=O)N[C@@H](Cc1c[nH]c2ccccc12)C(=O)O,,18,,17,2820,,1.6,37300,8.1,1.2,99,43,90,,,,,,,
CC(C)C[C@H](NC(=O)[C@H](C)NC(=O)[C@H](Cc1ccccc1)NC(=O)[C@@H](N)[C@@H](C)O)C(=O)N[C@@H](Cc1c[nH]c2ccccc12)C(=O)N[C@@H](CCCNC(=N)N)C(=O)N[C@H](C(=O)N[C@@H](CO)C(=O)N[C@@H](C)C(=O)N[C@@H](CCC(=O)O)C(=O)N[C@@H](CCC(=O)O)C(=O)N[C@@H](Cc1ccc(O)cc1)C(=O)O)C(C)C,517,72,,342,> 2570,,> 5280,88300,342,> 12700,,25500,927,> 6610,,,,,,
CC[C@H](C)[C@H](NC(=O)[C@@H](NC(=O)[C@H](CC(C)C)NC(=O)[C@H](CC(=O)O)NC(=O)[C@@H](NC(=O)[C@H](Cc1ccccc1)NC(=O)[C@H](C)NC(=O)[C@H](Cc1ccccc1)NC(=O)[C@H](CC(=O)O)NC(=O)[C@H](CC(C)C)NC(=O)[C@@H](N)C(C)C)[C@@H](C)O)[C@@H](C)O)C(=O)N[C@H](C(=O)N[C@@H](Cc1ccc(O)cc1)C(=O)N[C@@H](CCCNC(=N)N)C(=O)N[C@@H](CC(=O)O)C(=O)O)C(C)C,252,721,,7470,3100,,354,30,,645,,14800,230,11300,,,,,,
ALIYNYGLLYCFRKD,,,,,,,,,,,,,,,551,> 33300,137,9820,,
CYSLYGTTLEQQYNK,,71,,> 14700,> 13700,,1090,,,5060,26000,> 10700,> 9960,189,,,,,,
ESTGMTPEKVPVSEVMGT,,,,,,,,,,,,,,,> 71400,> 31200,,> 50000,> 47400,
FAGIRRDGLLLRLVD,,,,,,,,,,,,,,,> 3370,7650,,3.6,7090,41100
FVVYRDSIPHAACHK,2120,704,,,1850,,587,200,10,349,,2340,,18100,,,,,,
GEALSTLVLNRLKVG,20200,14800,,79,29,,719,11800,3050,,,46,3190,1020,,,,,,
GIVEQTTTSITSLYQ,,818,,,,,6350,107000,121,,> 54400,,788,,,,,,,
